In US9539298B2, “Lissencephaly therapeutic agent” (OSAKA CITY UNIVERSITY, priority 2010, dated 2017):
Non-standard residues stand in square brackets, D forms with d. Residues, ends and D or L forms follow the SMILES beside them. Nle = CCCC[CH](N)C(=O)O

Tests used:
[1] = biological target: T1, μ-calpain (derived from human red blood cells) (Homo sapiens, UniProt P07384); assay: Measurement of inhibitory activity against μ-calpain; type: biochemical; details: casein substrate, 30° C., 60 minutes; read-out: enzyme inhibitory activities (μM) μ-calpain
T1 construct: derived from human red blood cells; purchased Cosmo Bio Co., Ltd; host or cells: human red blood cells (tissue-purified)
T1 sequence (P07384 1-714): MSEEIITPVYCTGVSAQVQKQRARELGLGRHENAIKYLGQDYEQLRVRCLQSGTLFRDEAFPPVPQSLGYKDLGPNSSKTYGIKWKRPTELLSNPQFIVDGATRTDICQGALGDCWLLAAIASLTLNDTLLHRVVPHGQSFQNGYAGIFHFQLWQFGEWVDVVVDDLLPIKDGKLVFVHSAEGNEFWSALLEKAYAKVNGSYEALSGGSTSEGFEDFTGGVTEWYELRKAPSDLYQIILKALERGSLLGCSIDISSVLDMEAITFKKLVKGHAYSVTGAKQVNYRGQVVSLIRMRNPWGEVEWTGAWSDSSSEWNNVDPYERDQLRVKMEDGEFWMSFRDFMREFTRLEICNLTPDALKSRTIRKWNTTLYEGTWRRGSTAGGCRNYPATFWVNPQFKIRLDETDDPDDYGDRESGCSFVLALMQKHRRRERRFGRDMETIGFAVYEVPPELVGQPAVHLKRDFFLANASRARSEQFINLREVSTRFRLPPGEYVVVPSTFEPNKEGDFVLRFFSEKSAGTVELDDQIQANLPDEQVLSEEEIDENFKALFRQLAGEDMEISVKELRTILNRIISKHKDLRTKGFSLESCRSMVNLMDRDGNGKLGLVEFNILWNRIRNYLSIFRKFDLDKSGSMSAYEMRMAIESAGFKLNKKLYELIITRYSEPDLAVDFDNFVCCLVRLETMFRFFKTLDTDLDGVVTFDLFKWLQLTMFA
T1 sequence (P04632 1-268 partner): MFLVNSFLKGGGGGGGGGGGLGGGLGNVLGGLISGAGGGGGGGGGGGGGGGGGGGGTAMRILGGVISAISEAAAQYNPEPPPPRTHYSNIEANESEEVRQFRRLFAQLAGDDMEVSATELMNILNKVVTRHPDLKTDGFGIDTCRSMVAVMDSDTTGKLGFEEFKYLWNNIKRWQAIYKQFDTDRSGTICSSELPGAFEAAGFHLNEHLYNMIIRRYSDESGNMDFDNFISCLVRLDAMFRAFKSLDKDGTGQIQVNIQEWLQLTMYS
Experimental: (§1) The inhibitory activity against μ-calpain and m-calpain was assayed according to a published method (Anal. Biochem. 1993, vol. 208, p. 387-392). More specifically, 200 μL of a reaction solution containing 0.5 mg/mL casein, 50 mM Tris-HCl buffer (pH 7.4), 20 mM dithiothreitol and 1.0 nmol μ-calpain (derived from human red blood cells, Cosmo Bio Co., Ltd.) or m-calpain (derived from porcine kidney, Cosmo Bio Co., Ltd.) was added to individual 2.5 μL portions of DMSO solution containing a varying concentration of a test sample in a 96-well plate. Then, 50 μL of 20 mM aqueous calcium chloride was added thereto, and reaction was performed at 30° C. for 60 minutes. 100 μL of the reaction solution was transferred to another 96-well plate, and purified water (50 μL) and 50% aqueous solution (100 μL) of Protein Assay Dye Reagent (available from Bio-Rad Laboratories, Inc.; catalogue No. 500-600) were added thereto. The reaction mixture was allowed to stand at room temperature for 15 minutes, and its absorbance was measured at 595 nm. The absorbance of a reaction mixture prepared in the same manner as mentioned above, except that a DMSO solution containing no sample was used as a control value; and the absorbance of a reaction mixture prepared in the same manner as mentioned above, except that a 1 mM aqueous EDTA solution (50 μL) was used in place of 20 mM aqueous calcium chloride, was used as a blank value. […] Inhibition rate (%){1−(measured value−blank test value)/(control value−blank test value)}×100
The concentrations (IC50) are shown in Table 1 as enzyme (calpain) inhibitory activities (μM).

[2] = biological target: m-calpain (derived from porcine kidney) (Sus scrofa, UniProt I3LQD3); assay: Measurement of inhibitory activity against m-calpain; type: biochemical; details: casein substrate, 30° C., 60 minutes; read-out: enzyme inhibitory activities (μM) m-calpain
Experimental: as §1, with “More” for “The inhibitory activity against μ-calpain and m-calpain was assayed according to a published method (Anal. Biochem. 1993, vol. 208, p. 387-392). More”, “The reaction mixture was allowed to stand at room temperature for 15 minutes, and its absorbance was measured at 595 nm.” left out

[3] = test system: nerve cells from cerebellums of FVB mice; assay: Analysis of toxicity of calpain inhibitors on cultured cerebellar nerve cells; type: cell-based, mouse; details: 16 hours, FIG. 24
Experimental: The cerebellums were removed from 4- to 5-day-old FVB mice (15 mice). In a Ca^2+-free Hank's Balanced Salt Solution (CF-HBSS; Ca^2+, Mg^2+-free Hank's Balanced Salt Solution (CMF-HBBS, Sigma) containing 5 mM magnesium chloride (MgCl2, Wako) and 4 mg/mL glucose (Wako)), the meninges were removed and cut into pieces. After the cerebellum fragments were washed with CF-HBSS, the fragments were allowed to stand for 20 minutes at 37° C. in CF-HBSS containing 0.025% trypsin (Invitrogen) and 6.25 μg/mL deoxyribonuclease (DNase, Sigma), and then centrifuged. The resulting tissues were washed with 10% HS/BME (DNase Medium; obtained by adding 5 mM MgCl2 and 25 μg/mL DNase to Basal Medium Eagle (BME, Invitrogen) containing 10% Horse Serum (HS, Invitrogen)) and centrifuged. DNase medium was added to the cells, and the cells were transferred to a 24-well plate (Nunc). The cells were kept still for 30 minutes at 37′C under an atmospheric environment of 5% CO2, thereby suspending the cells. The cell suspension was isolated, and then washed with 10% HS/BME. The suspension was transferred again to a 24-well plate to be cultured for 16 hours at 37° C. under an atmospheric environment of 5% CO2. The cells were collected to BME containing 1% Bovine Serum Albumin (BSA, Sigma) and 0.5% N2 supplement (Invitrogen), and the cell suspension was seeded on a 35 mm glass base dish (Iwaki) coated beforehand with poly-L-lysine (Sigma) and laminin (Sigma) in an amount of […]. The cells were cultured for 8 hours at 37° C. under an atmospheric environment of 5% CO2. The cultured nerve cells were used as test nerve cells.
A culture solution (10% HS/BME) containing SNJ-1945, E64d, or ALLN was prepared in the following manner. SNJ-1945 dissolved in dimethyl sulfoxide (Sigma, D-5879) was mixed with a culture solution so that the final concentration became 200 μM, and was kept still for an hour at 37° C., thereby completely dissolving SNJ-1945 in the culture medium. ALLN and E64d were also dissolved in culture media in the same manner, except that ALLN and E64d were added to the culture media to final concentrations of 50 μM and 100 μM, respectively. The culture media in which the components were dissolved were added to the test nerve cells prepared above in an amount of 2 ml/well, and the cells were cultured for 16 hours. As a control, the same culture was conducted using a culture medium containing the same amount of dimethyl sulfoxide (Sigma, D-5879). After culture, the cells were observed using an inverted microscope (TCS FP5S, Leica). A 20× objective lens was used. Images were taken using dedicated software (LAS AF, Leica) under the condition of 512×512 pixels.

[4] = test system: cells with LIS1 gene heterozygous mutation (Lis1+/−); details: Lis1+/− cells treated with ALLN, NPL 1; cited from earlier work

Sequence of m-calpain (derived from porcine kidney) (I3LQD3 entry or part of it): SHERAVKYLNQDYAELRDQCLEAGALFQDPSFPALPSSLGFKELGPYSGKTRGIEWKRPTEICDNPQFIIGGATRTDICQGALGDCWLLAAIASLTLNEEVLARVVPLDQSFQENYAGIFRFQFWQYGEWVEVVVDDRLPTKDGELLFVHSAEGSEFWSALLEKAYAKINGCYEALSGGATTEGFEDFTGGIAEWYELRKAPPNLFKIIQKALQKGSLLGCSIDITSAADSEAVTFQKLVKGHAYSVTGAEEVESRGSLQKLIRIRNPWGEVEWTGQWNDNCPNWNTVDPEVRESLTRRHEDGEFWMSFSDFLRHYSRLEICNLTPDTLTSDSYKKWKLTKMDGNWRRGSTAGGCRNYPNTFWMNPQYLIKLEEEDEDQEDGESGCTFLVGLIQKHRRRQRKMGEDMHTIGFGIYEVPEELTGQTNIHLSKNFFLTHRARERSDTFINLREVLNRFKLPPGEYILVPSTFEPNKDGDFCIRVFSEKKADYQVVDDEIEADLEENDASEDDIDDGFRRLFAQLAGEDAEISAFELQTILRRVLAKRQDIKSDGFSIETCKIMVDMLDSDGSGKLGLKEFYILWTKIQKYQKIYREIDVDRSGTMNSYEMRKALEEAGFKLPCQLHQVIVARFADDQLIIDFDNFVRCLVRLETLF
Sequence of m-calpain (derived from porcine kidney) (P04574 whole entry, further chain): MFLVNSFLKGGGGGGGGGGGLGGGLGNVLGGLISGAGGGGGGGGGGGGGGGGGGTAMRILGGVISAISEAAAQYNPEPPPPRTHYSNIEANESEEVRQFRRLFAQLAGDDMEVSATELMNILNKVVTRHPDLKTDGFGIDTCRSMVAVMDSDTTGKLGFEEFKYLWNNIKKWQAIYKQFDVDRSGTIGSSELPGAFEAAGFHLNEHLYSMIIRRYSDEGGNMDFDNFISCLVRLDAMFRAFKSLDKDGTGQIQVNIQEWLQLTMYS

| Structure (SMILES) | IC50 [1] [µM] | melting point [°C] | IC50 [2] [µM] | neurite elongation and cell migration (cytotoxicity) ([3]; 50 μM) | LIS1 protein expression [4] | neuronal migration [4] | neurite elongation and cell migration (cytotoxicity) ([3]; 100 μM) |
| --- | --- | --- | --- | --- | --- | --- | --- |
| COCCOCCOCCOCCOCCOC(=O)N[C@@H](CC(C)C)C(=O)N[C@@H](Cc1ccccc1)C(=O)C(=O)NC1CC1 [compound 20, ((1S)-1-((((1S)-1-Benzyl-2,3-dioxo-3-(cyclopropylamino)propyl)amino)carbonyl)-3-methylbutyl)carbamic acid 14-methoxy-3,6,9,12-tetraoxatetradecanyl ester] | 0.42 | 98.5 to 99.9 | 0.19 |  |  |  |  |
| CCCCC(C=O)NC(=O)C(CC(C)C)NC(=O)C(CC(C)C)NC(C)=O (stereo not drawn) [ALLN, N-Acetyl-Leu-Leu-Nle-CHO] (Ac-Leu-Leu-[Nle]-aldehyde; configuration not given here) |  |  |  | the cells were roundly aggregated, neurite elongation was hardly observed, the cells remained accumulated in the center, and migration was hardly observed | increased LIS1 protein expression | restored neuronal migration |  |
| COCCOCCOCCOCCOC(=O)N[C@@H](CC(C)C)C(=O)N[C@@H](Cc1ccccc1)C(=O)C(=O)NC1CC1 [compound 19, ((1S)-1-((((1S)-1-Benzyl-2,3-dioxo-3-(cyclopropylamino)propyl)amino)carbonyl)-3-methylbutyl)carbamic acid 11-methoxy-3,6,9-trioxaundecanyl ester] | 0.22 | 97.5 to 98.5 | 0.17 |  |  |  |  |
| CCOC(=O)[C@H]1O[C@@H]1C(=O)N[C@@H](CC(C)C)C(=O)NCCC(C)C [E64d, reference compound] |  |  |  |  |  |  | the cells were aggregated in the center, many cells were incapable of neurite elongation, little migration was observed compared with the control |
